Test results: ChEMBL document CHEMBL1126374, “Synthesis of -(S)-acylamino-N-(hydroxydioxocyclobutenyl)--lactams as potential antibiotics” (Bioorg Med Chem Lett, 1992)
Active and inactive are the calls of the source. The calls are words filed in the database; no cut-off is given here.

Key:
Streptococcus pneumoniae = assay: Tested for antibacterial activity against Streptococcus pneumoniae; IA - No useful antibacterial activity; assay type: functional, organism-based
Escherichia coli = assay: Tested for antibacterial activity against Escherichia coli; IA - No useful antibacterial activity; assay type: functional, organism-based
Staphylococcus aureus = assay: Tested for antibacterial activity against Staphylococcus aureus; IA - No useful antibacterial activity; assay type: functional, organism-based
[1] = Half life in pH 7 buffer solution was determined; assay type: ADME

half-life [1] | Compound | Activity (Streptococcus pneumoniae) | Activity (Escherichia coli) | Activity (Staphylococcus aureus)
72 h | O=C(COc1ccccc1)N[C@H]1CN(c2c([O-])c(=O)c2=O)C1=O.[K+] | inactive | inactive | inactive
– | CO/N=C(/C(=O)N[C@H]1CN(c2c(O)c(=O)c2=O)C1=O)c1csc(N)n1 | inactive | inactive | inactive
168 h | C[C@H]1[C@H](NC(=O)COc2ccccc2)C(=O)N1c1c([O-])c(=O)c1=O.[K+] | inactive | inactive | inactive
